Key:
Assay in all cases: normalised number of viable cells after treatment (fraction of control); higher = more viable cells (less drug effect)
P10 Initial = tested on: P10 Initial (T-ALL xenograft cells from diagnosis)
Protocol: (§1)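 T-ALL PDX-derived cells (initial diagnosis or relapse samples of individual patients) co-cultured on hTERT-immortalized bone marrow MSCs in 384-well plates were treated with Cytarabine, Venetoclax, S-63845, A1331852 or FX1 (0.1 nM to 10,000 nM) for 72 h.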

P8 Initial = tested on: P8 Initial (T-ALL xenograft cells from diagnosis)
Protocol: as §1

P1 Initial = tested on: P1 Initial (T-ALL xenograft cells from diagnosis)
Protocol: as §1

P2 Relapse = tested on: P2 Relapse (T-ALL xenograft cells from relapse)
Protocol: as §1

P1 Relapse = tested on: P1 Relapse (T-ALL xenograft cells from relapse)
Protocol: as §1

P8 Relapse = tested on: P8 Relapse (T-ALL xenograft cells from relapse)
Protocol: as §1

P10 Relapse = tested on: P10 Relapse (T-ALL xenograft cells from relapse)
Protocol: as §1

P6 Relapse = tested on: P6 Relapse (T-ALL xenograft cells from relapse)
Protocol: as §1

P2 Initial = tested on: P2 Initial (T-ALL xenograft cells from diagnosis)
Protocol: as §1

P12 Initial = tested on: P12 Initial (T-ALL xenograft cells from diagnosis)
Protocol: as §1

P6 Initial = tested on: P6 Initial (T-ALL xenograft cells from diagnosis)
Protocol: as §1

P12 Relapse = tested on: P12 Relapse (T-ALL xenograft cells from relapse)
Protocol: as §1

P3 Initial = tested on: P3 Initial (T-ALL xenograft cells from diagnosis)
Protocol: as §1

P3 Relapse = tested on: P3 Relapse (T-ALL xenograft cells from relapse)
Protocol: as §1

CC1(C)CCC(CN2CCN(c3ccc(C(=O)NS(=O)(=O)c4ccc(NCC5CCOCC5)c([N+](=O)[O-])c4)c(Oc4cnc5[nH]ccc5c4)c3)CC2)=C(c2ccc(Cl)cc2)C1 [Venetoclax]
Conditions	normalised number of viable cells
P1 Initial, 0.125 nM	1
P1 Initial, 1 nM	0.841
P1 Initial, 12.5 nM	0.423
P1 Initial, 100 nM	0.345
P1 Initial, 1250 nM	0.259
P1 Initial, 10000 nM	0.0865
P1 Relapse, 0.125 nM	1.02
P1 Relapse, 1 nM	0.911
P1 Relapse, 12.5 nM	0.504
P1 Relapse, 100 nM	0.781
P1 Relapse, 1250 nM	0.352
P1 Relapse, 10000 nM	0.694
P2 Initial, 0.998752 nM	1.58
P2 Initial, 9.98752 nM	1.09
P2 Initial, 99.8752 nM	0.725
P2 Initial, 998.752 nM	0.56
P2 Initial, 9987.52 nM	0.514
P2 Relapse, 0.998752 nM	1.16
P2 Relapse, 9.98752 nM	1.37
P2 Relapse, 99.8752 nM	1.19
P2 Relapse, 998.752 nM	0.933
P2 Relapse, 9987.52 nM	0.412
P3 Initial, 0.998752 nM	0.948
P3 Initial, 9.98752 nM	0.925
P3 Initial, 99.8752 nM	0.814
P3 Initial, 998.752 nM	0.821
P3 Initial, 9987.52 nM	0.139
P3 Relapse, 0.998752 nM	1.18
P3 Relapse, 9.98752 nM	1.15
P3 Relapse, 99.8752 nM	1.104
P3 Relapse, 998.752 nM	0.922
P3 Relapse, 9987.52 nM	0.072
P6 Initial, 0.998752 nM	1.17
P6 Initial, 9.98752 nM	0.743
P6 Initial, 99.8752 nM	0.5415
P6 Initial, 998.752 nM	0.355
P6 Initial, 9987.52 nM	0.269
P6 Relapse, 0.998752 nM	1.31
P6 Relapse, 9.98752 nM	1.12
P6 Relapse, 99.8752 nM	0.554
P6 Relapse, 998.752 nM	0.584
P6 Relapse, 9987.52 nM	0.169
P8 Initial, 0.998752 nM	2.58
P8 Initial, 9.98752 nM	2.56
P8 Initial, 99.8752 nM	2.09
P8 Initial, 998.752 nM	1.89
P8 Initial, 9987.52 nM	2.3
P8 Relapse, 0.998752 nM	1.21
P8 Relapse, 9.98752 nM	1.24
P8 Relapse, 99.8752 nM	1.02
P8 Relapse, 998.752 nM	0.744
P8 Relapse, 9987.52 nM	0.732
P10 Initial, 0.998752 nM	1.39
P10 Initial, 9.98752 nM	1.41
P10 Initial, 99.8752 nM	0.954
P10 Initial, 998.752 nM	0.665
P10 Initial, 9987.52 nM	0.21
P10 Relapse, 0.998752 nM	0.866
P10 Relapse, 9.98752 nM	1.17
P10 Relapse, 99.8752 nM	0.717
P10 Relapse, 998.752 nM	0.313
P10 Relapse, 9987.52 nM	0.13
P12 Initial, 0.998752 nM	1.15
P12 Initial, 9.98752 nM	1.21
P12 Initial, 99.8752 nM	0.923
P12 Initial, 998.752 nM	0.978
P12 Initial, 9987.52 nM	0.0715
P12 Relapse, 0.998752 nM	5.7
P12 Relapse, 9.98752 nM	4.1
P12 Relapse, 99.8752 nM	4.2
P12 Relapse, 998.752 nM	4.43
P12 Relapse, 9987.52 nM	0.845

Cc1c(-c2c(-c3ccc(F)o3)sc3ncnc(O[C@H](Cc4ccccc4OCc4ccnn4CC(F)(F)F)C(=O)O)c23)ccc(OCCN2CCN(C)CC2)c1Cl
normalised number of viable cells
Conditions	0.125 nM	0.13 nM	1 nM	1.25 nM	12.5 nM	31.25 nM	100 nM	625 nM	1250 nM	10000 nM
P1 Initial	1.16	–	1.05	–	0.838	–	0.231	–	0.054	0.0485
P1 Relapse	–	1.26	–	1.15	–	0.987	–	0.131	–	0.039
P2 Initial	–	0.99	–	0.918	–	0.86	–	0.197	–	0.129
P2 Relapse	–	1.05	–	1.04	–	0.878	–	0.7035	–	0.068
P6 Initial	–	1.02	–	1.08	–	0.638	–	0.0605	–	0.022
P6 Relapse	–	1.07	–	0.884	–	1.02	–	0.483	–	0.035
P8 Initial	–	1.09	–	1.08	–	1.04	–	0.54	–	0.0315
P8 Relapse	–	0.992	–	1.05	–	1.02	–	0.9355	–	0.0655
P10 Initial	–	1.29	–	1.17	–	0.639	–	0.225	–	0.0835
P10 Relapse	–	1.02	–	1.15	–	1.08	–	0.785	–	0.0695
P12 Initial	–	1.05	–	0.991	–	0.58	–	0.337	–	0.0575
P12 Relapse	–	0.277	–	1.52	–	0.199	–	0.048	–	0.0695
